Experimental data reported in patent US8309558B2, “Compounds for the treatment of hepatitis C” (Bristol-Myers Squibb Company, priority 2008, dated 2012).
Where two headings read alike, the source gives them in different places.

Assays:
[1] = biological target: T1, HCV NS5B RdRp genotype 1b (Hepatitis C virus genotype 1b, UniProt Q9WMX2); assay: Standard HCV NS5B RdRp enzyme assay; assay type: biochemical; conditions: HCV NS5B RdRp genotype 1b, read-out: IC50
T1 construct: The protein was expressed with an 18 amino acid C-terminal truncation to enhance the solubility; made in house; host or cells: E. coli BL21(DE3), pET21a vector
T1 sequence (Q9WMX2 2420-2992): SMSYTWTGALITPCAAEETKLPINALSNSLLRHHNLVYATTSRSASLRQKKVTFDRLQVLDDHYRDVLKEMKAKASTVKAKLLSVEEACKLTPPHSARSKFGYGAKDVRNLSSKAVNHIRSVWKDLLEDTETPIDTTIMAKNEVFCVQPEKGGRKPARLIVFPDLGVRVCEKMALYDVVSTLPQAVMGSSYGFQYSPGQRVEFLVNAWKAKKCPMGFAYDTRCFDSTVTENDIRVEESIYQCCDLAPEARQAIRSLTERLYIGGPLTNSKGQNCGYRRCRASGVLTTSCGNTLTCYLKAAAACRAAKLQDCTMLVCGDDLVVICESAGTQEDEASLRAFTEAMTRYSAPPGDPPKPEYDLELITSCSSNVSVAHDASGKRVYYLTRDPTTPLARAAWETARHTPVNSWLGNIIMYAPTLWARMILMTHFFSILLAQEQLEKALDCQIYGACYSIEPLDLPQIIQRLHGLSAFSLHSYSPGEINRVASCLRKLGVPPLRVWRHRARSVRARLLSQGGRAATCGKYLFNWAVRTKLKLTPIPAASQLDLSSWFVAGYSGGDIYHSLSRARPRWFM
Procedure, shortened: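 Radiometric SPA measuring 3H-UMP incorporation on polyA/biotin-oligo-dT12 (6 nM/180 nM), 0.29 μM total UTP. Enzyme: NS5B 1b lacking last 18 residues, 28 nM final, 30° C for 60 min in 20 mM Hepes pH 7.5, 2.5 mM MgCl2, 2% DMSO. IC50 from seven-point curves.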

[2] = test system: HUH-7 cells, constitutively expressing the HCV replicon; assay: HCV Replicon Luciferase Reporter Assay (384-well plates); assay type: cell-based; conditions: Hepatitis C virus, untitled table after Table 1b, *EC50 determined using 384 well plate method
Description: The HCV replicon luciferase assay was developed to monitor the inhibitory effects of compounds described in the disclosure on HCV viral replication. Utilization of a replicon luciferase reporter assay was first described by Krieger et al (Krieger N, Lohmann V, and Bartenschlager R, J. Virol. 75(10):4614-4624 (2001)). HUH-7 cells, constitutively expressing the HCV replicon, were grown in Dulbecco's Modified Eagle Media (DMEM) (Gibco-BRL) containing 10% Fetal calf serum (FCS) (Sigma) and 1 mg/ml G418 (Gibco-BRL). Compounds were serially diluted 3 folds in DMSO for a twenty-point titration and subsequently transferred to sterile 384-well tissue-culture treated plates (Corning cat #3571). The plates were then seeded with 50 μl of cells at a density of 3.0×10^3 cells/well in DMEM containing 4% FCS (final DMSO concentration at 0.5%). After 3 days incubation at 37° C., cells were analyzed for Renilla Luciferase activity using the EnduRen as substrate (Promega cat #E6485). The EnduRen substrate was diluted in DMEM and then added to the plates to a final concentration of 7.5 μM. The plates were incubated for 2 hrs at 37° C. and then read immediately for 30 seconds with Viewlux Imager (PerkinElmer) using a luminescence program. To assess cytotoxicity of compounds, CC50 values were generated by multiplexing the EnduRen-containing plates with Cell Titer-Blue (Promega, cat #G8082). 3 μl of Cell-Titer Blue was added to each well and incubated for 8 hrs at 37° C. The fluorescence signal from each well was read, with an excitation wavelength at 525/10 nm and an emission wavelength of 598/10 nm, using the Viewlux Imager.

HCV = conditions: cited from earlier work
HCV replicon cells = assay: HCV replicon FRET / luciferase assay (96-well plates); assay type: cell-based; conditions: Hepatitis C virus, HCV replicon, read-out: EC50
Procedure, shortened: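 Percent activity is background-subtracted signal relative to untreated cell wells, with background taken from maximal protease-inhibitor wells. Cytotoxicity is Alamar blue fluorescence relative to controls. Replicon inhibition was read by NS3 FRET peptide cleavage (340/490 nm) or luciferase.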

Row | SMILES | IC50 ([1]; untitled table after Table 1b) [nM] | EC50 [2] [nM] | IC50 ([1]; Table 1a) [nM] | EC50 (HCV replicon cells; Table 1a) [nM] | further results
1 | CNC(=O)c1c(-c2ccc(F)cc2)oc2ccc(-c3cc(C(=O)NC4(c5nc(C)no5)CC4)ccc3C)cc12 [drawing 602] | 7.2 | 0.805 |  |  | 
2 | CNC(=O)c1c(-c2ccc(F)cc2)oc2ccc(-c3cc(C(=O)NC4(c5ccncc5)CC4)ccc3C)cc12 [drawing 603] | 3.95 | 0.83 |  |  | 
3 | CNC(=O)c1c(-c2ccc(F)cc2)oc2ccc(-c3cc(C(=O)NC4(c5ncccn5)CC4)ccc3C)cc12 [drawing 599] | < 20 | 0.304 |  |  | 
4 | CNC(=O)c1c(-c2ccc(F)cc2)oc2ccc(-c3cc(C(=O)NC4(c5nc(C)no5)CC4)c(OC)cc3C)cc12 [drawing 598] | 20 | 1.6 |  |  | 
5 | CNC(=O)c1c(-c2ccc(F)cc2)oc2ccc(-c3cc(C(=O)NC4(c5ccccc5)CC4)ccc3C)cc12 [drawing 601] | 20 | 0.786 |  |  | 
6 | CNC(=O)c1c(-c2ccc(F)cc2)oc2cc(N(CCO)S(C)(=O)=O)c(C3CC3)cc12 [HCV-796] |  |  |  |  | hepatic toxicity (HCV; patients, extended dosing of the combination regimens): hepatic toxicity observed; HCV RNA levels in patients (HCV; single agent or combined with interferon and ribavirin): reduce HCV RNA levels in patients
7 | CNC(=O)c1c(-c2ccc(F)cc2)oc2ccc(-c3cc(C(=O)NC4(c5ncccn5)CC4)ccc3C)c(F)c12 [drawing 623] |  | 5.68 |  |  | 
8 | CNC(=O)c1c(-c2ccc(F)cc2)oc2ccc(-c3cc(C(=O)NC4(c5ccccn5)CC4)cc(F)c3C)cc12 [drawing 600] | 10 | 0.425 |  |  | 
9 | CNC(=O)c1c(-c2ccc(F)cc2)oc2ccc(-c3cccc(C(=O)NCCc4ccccc4)c3)cc12 |  |  | > 10000 | > 10000 | 
10 | CNC(=O)c1c(-c2ccc(F)cc2)oc2ccc(-c3cccc(C(=O)NCCN(C)C)c3)cc12 |  |  | 1000 to 10000 | 1000 to 10000 | 
11 | CNC(=O)c1c(-c2ccc(F)cc2)oc2ccc(-c3c(C)ccc(C(=O)NC4(c5ccccn5)CC4)c3F)cc12 |  |  |  |  | IC50 ([1]; Table 1b): < 20 nM; EC50 (HCV replicon cells; Table 1b): < 250 nM
12 | CNC(=O)c1c(-c2ccc(F)cc2)oc2ccc(-c3cc(OCCn4ccnc4)cc(C(=O)NCC(C)C)c3)cc12 |  |  |  |  | IC50 ([1]; Table 1b): 1000 to 10000 nM; EC50 (HCV replicon cells; Table 1b): 1000 to 10000 nM
13 | CNC(=O)c1c(-c2ccc(F)cc2)oc2ccc(-c3cccc(C(=O)NCCOC)c3)cc12 [drawing 182] |  |  | 1000 to 10000 | 1000 to 10000 | 
14 | CNC(=O)c1c(-c2ccc(F)cc2)oc2ccc(-c3cccc(C(=O)N[C@@H](CO)C(N)=O)c3)cc12 |  |  | 1000 to 10000 | > 10000 | 
15 | CNC(=O)c1c(-c2ccc(F)cc2)oc2cc(N(C)S(C)(=O)=O)c(-c3cccc(C(=O)NC(C)(C)c4ccccc4)c3)cc12 |  |  |  |  | IC50 ([1]; Table 1b): < 250 nM; EC50 (HCV replicon cells; Table 1b): < 250 nM
16 | CNC(=O)c1c(-c2ccc(F)cc2)oc2ccc(-c3cccc(C(=O)Nc4ccc(O)nc4)c3)cc12 |  |  | 1000 to 10000 | 1000 to 10000 | 
17 | CNC(=O)c1c(-c2ccc(F)cc2)oc2ccc(-c3cccc(C(=O)NC(C)(C)c4ccccc4)c3)c(NC(C)=O)c12 |  |  | 1000 to 10000 | 1000 to 10000 | 
18 | CNC(=O)c1c(-c2ccc(F)cc2)oc2ccc(-c3cc(C(=O)NCC(C)C)ccc3OC(F)F)cc12 |  |  |  |  | IC50 ([1]; Table 1b): < 250 nM; EC50 (HCV replicon cells; Table 1b): < 250 nM
19 | CNC(=O)c1c(-c2ccc(F)cc2)oc2ccc(-c3cccc(S(=O)(=O)NC(C)C)c3)cc12 |  |  | > 10000 | > 10000 | 
